The values that follow come from article PMC5703966, “Systemic clearance and brain distribution of carbazole-based cyanine compounds as Alzheimer’s disease drug candidates” (Scientific Reports, 2017).

A short description of series [1]: Liver microsomes binding by RED device. It counts as in vitro ADME. The method, then: Nonspecific binding in plasma (f u, plasma), microsomes (f u, mic) and hepatocyte (f u, hep) were determined using the method seen in supplemental information (Supplemental Methods). […]
Plasma, liver microsomes and hepatocyte binding by RED device […]
The stability of the compounds in plasma, liver microsomes and hepatocyte were studied to ensure […]
the reliability of the binding data. Hepatocyte was deactivated by leaving them on a bench for 2 days […]
and going through a freeze thaw cycle thereafter. […]
denatured. Testosterone was used as a control for CYP3A to ensure no turnover, so that the enzymes […]
were inactivated. All validation compounds were incubated at 37 °C over 4 h, and in triplicate. […]
For liver mi crosomes without cofactors and […]
mg/mL protein concentration, same as the assay condition) or deactivated hepatocytes (0.5 million […]
cells/mL, same as the assay condition) were added to the donor wells. 10 mM DMSO solutions of SLM […]
and SLOH were diluted to 50 µM (10% DMSO). 490 µL aliquots microsomes (0.51 mg/mL) and […]
hepatocytes (0.51 million cells/mL) were dispensed into a 1.5 mL tube, and then pre-warmed at 37 °C […]
in a shaking water bath. The assay was started by addition of 10 µL aliquots of compound solutions to […]
the corresponding biologica l matrices (final DMSO incubation concentration 0.2%, microsomes […]
concentration 0.50 mg/mL, hepatocytes concentration 0.5 million cells/mL). At 0, 15, 30, 60, 120, 180 […]
MS/MS. Natural logarithm of peak area ratios (compound peak area normalized by IS peak area) were plotted against time and half-life calculated. […]
placed into the sample chamber (indicated by the red ring) with 400 µL of PBS into the adjacent chamber.
The plate was sealed with a self-adhesive lid and incubated at 37 °C on an orbital shaker (1.5 g approx.) for 4 h. Aliquots (100 µL) were removed from each side of the insert, and analyzed after protein precipitation using 4 folds acetonitrile (ACN) containing berberine chloride as internal standard (IS) by LC-MS/MS (Analytical me thod seen below). The experimental procedure outlined in the Thermo Scientific RED device systems brochure was adopted in the present study . […]
For control experiments, NADPH, UDPGA and/or liver microsomes were omitted from these incubations. For the purposes of metabolite identification studies, the concentration of SLOH and […]
A general note: Liver microsomes are vesicles of endoplasmic reticulum, rich in cytochrome P450 enzymes.

In series [2] the test system is AD model mice. Also noted: method as in PMID 28032988. Conditions: cited from earlier work.
A short description of series [3]: Liver microsomes stability with NADPH. The format is in vitro ADME, mouse. The following applies: for microsomal CLint at 1 μM: ICR/CD-1, liver microsomes, NADPH, read-out: Microsomes Cl int,app; for microsomal CLint at 1 μM / CLint scaled at 1 μM: pH 7.4; for CLint scaled at 1 μM: ICR/CD-1, mouse, liver microsomes, read-out: Microsomes Cl int,scaled; for Microsomes scaled Cl hep: well-stirred model; for Microsomes Cl u, int,app: Cl int,app / f u,mic.

Series [4] in a line: Stability in plasma, microsomes without cofactors and deactivated hepatocytes. The following applies: ICR/CD-1, mouse and human; all species, 37 °C, more than 4 hours; read-out: half-life elimination (t 1/2) in plasma, microsomes and deactivated hepatocytes. The format is in vitro ADME. The method, then:
page 4: Supplemental Methods Blood-to-plasma ratio […] and incubated for an hour at 37 OC. At the end of the incubation period, plasma (CP) is separated from […] folds acetonitrile (ACN) containing berberine chloride as internal standard (IS) by LC-MS/MS (Analytical method seen below). The blood cell partitioning was calculated as follows. (1) Plasma, liver microsomes and hepatocyte binding by RED device The stability of the compounds in plasma, liver microsomes and hepatocyte were studied to ensure the reliability of the binding data. Hepatocyte was deactivated by leaving them on a bench for 2 days and going through a freeze thaw cycle thereafter. […] were inactivated. All validation compounds were incubated at 37 °C over 4 h, and in triplicate. For […] […] Natural logarithm of peak area ratios (compound peak area normalized by IS peak area) were plotted against time and half-life calculated. […] Aliquots (100 µL) were removed from each side of the insert, and analyzed after protein precipitation using 4 folds acetonitrile (ACN) containing berberine chloride as internal standard (IS) by LC-MS/MS (Analytical me thod seen below). […] In vitro stability in liver microsomes and hepatocytes Half-life (t1/2) of SLM or SLOH in liver microsomes was determined in duplicate. […]

Setting [5] is: human liver microsomes 0.5 mg/mL.
Where [6] appears, read: mouse liver microsomes 0.5 mg/mL.

Structures are written as SMILES.

`COCCOCCn1c2ccccc2c2cc(/C=C/c3cc[n+](C)c4ccccc34)ccc21.[I-]` [SLM, (E)-4-(2-(9-(2-(2-methoxyethoxy)ethyl)-9H-carbazol-3-yl)-vinyl)-1-methyl-quinolin-1-iumiodide]: the “f u,mic %” value in series [1] (setting [5]) was 7.30 ± 0.150%. For the same molecule, the “f u,mic %” value in series [1] (setting [6]) is recorded as 11.0 ± 1.06^$ %. Moreover, the “effect on pathological symptom and memory deterioration” value in series [2] is “alleviate the pathological symptom and memory deterioration”. In series [3] (mouse), the microsomal CLint at 1 μM came out at 30 µL/min/mg; the “Microsomes scaled Cl hep” value was found to be 16 ± 0.833 mL/min/kg; the “Microsomes Cl u, int,app” value is listed as 0.300 ± 0.0200^$$ mL/min/mg. The CLint scaled at 1 μM in series [3] is 130 ± 9 mL/min/kg. Moreover, in series [4], the half-life was over 24 h.

In the case of `COCCOCCn1c2ccccc2c2cc(/C=C/c3cc[n+](CCO)c4ccccc34)ccc21` [SLOH, (E)-1-(2-hydroxyethyl)-4-(2-(9-(2-(2-metho-xyethoxy)-ethyl)-9H-carbazol-3-yl)vinyl) quinolin-1-ium chloride], the “f u,mic %” value in series [1] (setting [5]) is 6.60 ± 1.60%. Further, in series [1] (setting [6]), the “f u,mic %” value is reported as 17.0 ± 2.40^$ %. Further, the “effect on pathological symptom and memory deterioration” value in series [2] is “alleviate the pathological symptom and memory deterioration”. In addition, in series [3] (mouse), the microsomal CLint at 1 μM worked out at 30 µL/min/mg; the “Microsomes Cl u, int,scaled” value is listed as 680 ± 75.0^$$ mL/min/Kg; the “Microsomes scaled Cl hep” value worked out at 18.3 ± 1.67 mL/min/kg; the “Microsomes Cl u, int,app” value is reported as 0.170 ± 0.0200^$$ mL/min/mg. Besides, the CLint scaled at 1 μM in series [3] came to 110 ± 13 mL/min/kg. The half-life in series [4] is over 24 h.
